Reference: publication PMC3431822, “Enzymatic Properties and Mutational Studies of Chalcone Synthase from Physcomitrella patens” (International Journal of Molecular Sciences, 2012)

Target: T1, PpCHS (Physcomitrium patens, UniProt Q2VAZ3)
T1 construct: gene PHYPA_029015; homodimer ~120 kDa
Assay: HPLC of pyrone product, UV […] nm
Format: biochemical
Conditions: hexanoyl-CoA co-substrate, 20 mM phosphate pH 7, 30 °C, 2 h; extender substrate; Trx-fusion enzyme

T1 sequence (Q2VAZ3 entry or part of it): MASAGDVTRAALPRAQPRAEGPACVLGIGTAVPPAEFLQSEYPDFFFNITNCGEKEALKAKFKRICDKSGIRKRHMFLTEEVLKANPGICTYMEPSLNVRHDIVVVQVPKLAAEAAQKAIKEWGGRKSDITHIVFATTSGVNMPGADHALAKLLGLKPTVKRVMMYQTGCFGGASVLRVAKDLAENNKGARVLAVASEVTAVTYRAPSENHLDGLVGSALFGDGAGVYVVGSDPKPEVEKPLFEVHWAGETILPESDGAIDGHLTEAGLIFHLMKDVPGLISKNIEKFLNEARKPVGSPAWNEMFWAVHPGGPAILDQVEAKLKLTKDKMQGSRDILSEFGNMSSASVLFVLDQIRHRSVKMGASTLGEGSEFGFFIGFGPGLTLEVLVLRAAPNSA

`CC(C)(COP(=O)(O)OP(=O)(O)OC[C@H]1O[C@@H](n2cnc3c(N)ncnc32)[C@H](O)[C@@H]1OP(=O)(O)O)[C@@H](O)C(=O)NCCC(=O)NCCSC(=O)CC(=O)O` [malonyl-CoA] was tested, and the “HPLC of pyrone product, UV 280 nm” value was “HPLC Analysis of the reaction of hexanoyl-CoA and malonyl-CoA with PpCHS”.
